Measurements as given in US20230284618A1, “HERBICIDAL COMBINATIONS” (UPL Corporation Limited, priority 2022, published 2023).

Columns and labels:
Assay type in all cases: in vivo
Common Ragweed = test: Pre-emergence bio-efficacy, weed control 27 DAT; details: 27 days after treatment, G ai: imazamox 105, rimsulfuron 70, pendimethalin 4270, mesotrione 210
Method: (§1) Experiments were carried out to evaluate the bio-efficacy of the herbicidal combinations according to the present disclosure. The herbicides were applied at the pre-emergence stage. The results have been disclosed in Tables 1-5.
(§2) Weeds: Giant Foxtail, Common Ragweed, Galinsoga, Yellow Nutsedge

Galinsoga = test: Pre-emergence bio-efficacy, weed control 27 DAT; details: 27 days after treatment, G ai: imazamox 105, rimsulfuron 70, pendimethalin 4270, mesotrione 210
Method: as §1, §2

Giant Foxtail = test: Pre-emergence bio-efficacy, weed control 27 DAT; details: 27 days after treatment, G ai: imazamox 105, rimsulfuron 70, pendimethalin 4270, mesotrione 210
Method: as §1, §2

Yellow Nutsedge = test: Pre-emergence bio-efficacy, weed control 27 DAT; details: 27 days after treatment, G ai: imazamox 105, rimsulfuron 70, pendimethalin 4270, mesotrione 210
Method: as §1, §2

Dandelion = test: Pre-emergence bio-efficacy, weed control 85 DAT; details: 85 days after treatment, G ai: imazamox 105, rimsulfuron 70, pendimethalin 4270, mesotrione 210
Method: as §1
(§3) Weeds: Common Velvetgrass, Broadleaf spp., Red Sorrel, Dandelion, Geranium spp.

Geranium spp. = test: Pre-emergence bio-efficacy, weed control 85 DAT; details: 85 days after treatment, G ai: imazamox 105, rimsulfuron 70, pendimethalin 4270, mesotrione 210
Method: as §1, §3

Red Sorrel = test: Pre-emergence bio-efficacy, weed control 85 DAT; details: 85 days after treatment, G ai: imazamox 105, rimsulfuron 70, pendimethalin 4270, mesotrione 210
Method: as §1, §3

Row | Structure (SMILES) | Control 27 DAT (%) Common Ragweed (Common Ragweed) [%] | Control 27 DAT (%) Galinsoga (Galinsoga) [%] | Control 27 DAT (%) Giant Foxtail (Giant Foxtail) [%] | Control 27 DAT (%) Yellow Nutsedge (Yellow Nutsedge) [%] | Control 85 DAT (%) Dandelion (Dandelion) [%] | Control 85 DAT (%) Geranium spp. (Geranium spp.) [%] | Control 85 DAT (%) Red Sorrel (Red Sorrel) [%]
1 | COCc1cnc(C2=NC(C)(C(C)C)C(=O)N2)c(C(=O)O)c1 (stereo not shown) [Imazamox] | 63 | 53 | 58 | 40 | 5 | 8 | 13
2 | CS(=O)(=O)c1ccc(C(=O)C2C(=O)CCCC2=O)c([N+](=O)[O-])c1 [Mesotrione] |  |  |  |  | 8 | 5 | 8
3 | CCC(CC)Nc1c([N+](=O)[O-])cc(C)c(C)c1[N+](=O)[O-] [Pendimethalin] |  |  |  |  | 20 | 18 | 15
4 | CCS(=O)(=O)c1cccnc1S(=O)(=O)NC(=O)Nc1nc(OC)cc(OC)n1 [Rimsulfuron] |  |  |  |  | 45 | 28 | 18
